Experiments:
[1] = tested on: C4-2 PSMA-positive xenografts; experiment: Biodistribution of radiolabelled ligands after intravenous injection in nude mice with C4-2 xenografts; conditions: for Tumor-to-kidney ratio / Kidney uptake / Tumor uptake: average; for Tumor-to-kidney ratio: 1-hour point after administration; for Kidney uptake / Tumor uptake: 4 hours after injection
Description: Each group usually consisted of three mice. […] Approximately 16 kBq of ^224Ra/^212Pb was injected in each animal, i.e., approximately 0.2 nmol of ligand per mouse. Animals were given anaesthesia and sacrificed by cervical dislocation followed by dissection and harvesting of tissue-, blood- and urine samples. The samples were weighed and counted on a gamma counter.
Three mice in each group. […] The molar concentration was the same for both products, i.e., 12.5 nmol per MBq. Approximately 16 kBq of ^224Ra/^212Pb was injected in each animal, i.e., approximately 0.2 nmol of ligand per mouse. Animals were given anaesthesia and sacrificed by cervical dislocation followed by dissection and harvesting of tissue-, blood- and urine samples. The samples were weighed and counted on a gamma counter.
Methods: Tumor and kidney uptake of ^212Pb-labeled p-SCN-Bn-TCMC-PSMA ligand 1 and ^177Lu-labeled PSMA-617 was compared at 1 hours and 4 hours after administration of the products by intravenous injection into nude mice with C4-2 xenografts as described in Example 9.

[2] = tested on: C4-2 PSMA positive human prostate cells; experiment: Comparative therapy experiment in nude mice with C4-2 xenografts; format: in vivo; conditions: for Median survival: 52 MBq ^177Lu-PSMA-617 or 320 kBq ^212Pb-p-SCN-Bn-TCMC-PSMA ligand 1
Description: Male nude mice were inoculated in the flanks with C4-2 PSMA positive human prostate cells and 2 weeks later when tumors were 5-7 mm in diameters. Groups of 8 animals each received saline, 52 MBq of ^177Lu-PSMA-617 or 320 kBq of ^212Pb-p-SCN-Bn-TCMC-PSMA ligand 1. Animals were sacrificed when tumor size reached 20 mm due to animal welfare requirements. […] For ^212Pb the effective half-life was assumed to be 10.6 h, 10% of injected dose per gram decays in tumor and 100% of radiation in a tumor is absorbed in the tumor, 100% retention of ^212Pb and daughters in the tumors and 8 MeV radiation energy per decay. The tumor dosimetry for the injected activities gave on average 35.9 Gy to tumors for ^177Lu-PSMA-617 and 2.06 Gy to tumors for ^212Pb-p-SCN-Bn-TCMC-PSMA ligand 1 groups respectively.

PC3 PIP model = conditions: typical, mouse xenografts, other researchers; cited from earlier work
PSMA-positive xenografts = experiment: Biodistribution of single targeting solution (purified ^212Pb-p-SCN-Bn-TCMC-PSMA ligand 1) in mice with PSMA-positive xenografts; format: in vivo
Description: Each group usually consisted of three mice. The ^212Pb labelling was above 92% for the products.
Using a ^212Pb/^224Ra solution for reaction with p-SCN-Bn-TCMC-PSMA ligand 1 as described, purified ^212Pb-p-SCN-Bn-TCMC-PSMA ligand 1 was purified using a Sephadex G-10 gel filtration column and about 30 kBq and 300 ng of the purified radioligand product was injected per animal. […] The tumor-to-tissue ratios (Table 4) indicates suitability for radioligand targeting with ^212Pb.

C4-2 cells = experiment: Prostate cancer cell binding of ligands labeled with ^212Pb; design: species or system human
Description: the cell binding fractions measured by adding about 1 ng of radioligand to 0.2 ml of C4-2 cells (5×10^7 cells per ml) in a 5 ml test tube and incubate for 1 h before measuring applied activity, wash cells 3 times with 0.5 ml 0.5% bovine serum albumin in DPBS and thereafter recount the washed cell pellet. […] Nonspecific binding was measured by blocking the cells with excess 10 μg/ml of unlabelled ligand before adding radioligand.

For `O=C([O-])CN1CCN(CC(=O)[O-])CCN(CC(=O)NCC2CCC(C(=O)N[C@@H](Cc3ccc4ccccc4c3)C(=O)NCCCC[C@H](NC(=O)N[C@@H](CCC(=O)O)C(=O)O)C(=O)O)CC2)CCN(CC(=O)[O-])CC1.[177Lu+3]` (stereo partly shown) [^177Lu-PSMA-617, reference compound], the Tumor-to-kidney ratio [1] was 0.17, the Kidney uptake [1] was 17.4 % ID/g and the Tumor uptake [1] was 13.6 % ID/g. The “PSMA-ligand uptake in the xenograft model used” value ([1]; typical, mouse xenografts) was 10-15 % ID/g, the Median survival [2] was 20 days and the “PSMA-ligand uptake in PC3 PIP model” value (PC3 PIP model) was 30-40 % ID/g.

In the case of `NC(=O)CN1CCN(CC(N)=O)CCN(CC(N)=O)C(Cc2ccc(NC(=S)NCC3CCC(C(=O)NC(Cc4ccc5ccccc5c4)C(=O)NCCCCC(NC(=O)NC(CCC(=O)O)C(=O)O)C(=O)O)CC3)cc2)CN(CC(N)=O)CC1.[212Pb+2]` (stereo not shown) [^212Pb-p-SCN-Bn-TCMC-PSMA ligand 1], the “^212Pb-p-SCN-Bn-TCMC-PSMA ligand 1 to PSMA-617 ratio, blood” value ([1]; 4 h after injection) is reported as 1.21, the “^212Pb-p-SCN-Bn-TCMC-PSMA ligand 1 to PSMA-617 ratio, kidneys” value ([1]; 4 h after injection) is reported as 0.20 and the “^212Pb-p-SCN-Bn-TCMC-PSMA ligand 1 to PSMA-617 ratio, liver” value ([1]; 4 h after injection) is reported as 2.67. For the same molecule, the “^212Pb-p-SCN-Bn-TCMC-PSMA ligand 1 to PSMA-617 ratio, spleen” value ([1]; 4 h after injection) was 0.71, the “^212Pb-p-SCN-Bn-TCMC-PSMA ligand 1 to PSMA-617 ratio, tumor” value ([1]; 4 h after injection, ^224Ra/^212Pb solution) was 1.35 and the Tumor-to-kidney ratio [1] was 0.40. For the same molecule, the Kidney uptake [1] was 8.1 % ID/g, the Tumor uptake [1] was 13.9 % ID/g and the “Tumor to tissue ratio, Tumor/Femur” value (PSMA-positive xenografts; 1 h) was 30.4. For the same molecule, the “Tumor to tissue ratio, Tumor/blood” value (PSMA-positive xenografts; 1 h) was 14.9, the “Tumor to tissue ratio, Tumor/kidneys” value (PSMA-positive xenografts; 1 h) was 0.41 and the “Tumor to tissue ratio, Tumor/muscle” value (PSMA-positive xenografts; 1 h) was 42.6. The “Tumor to tissue ratio, Tumor/Femur” value (PSMA-positive xenografts; 2 h) was 39.7, the “Tumor to tissue ratio, Tumor/blood” value (PSMA-positive xenografts; 2 h) was 29.4 and the “Tumor to tissue ratio, Tumor/kidneys” value (PSMA-positive xenografts; 2 h) was 0.62. The “Tumor to tissue ratio, Tumor/muscle” value (PSMA-positive xenografts; 2 h) was 72.1, the “Tumor to tissue ratio, Tumor/Femur” value (PSMA-positive xenografts; 4 h) was 24.8 and the “Tumor to tissue ratio, Tumor/blood” value (PSMA-positive xenografts; 4 h) was 30.7. For the same molecule, the “Tumor to tissue ratio, Tumor/kidneys” value (PSMA-positive xenografts; 4 h) was 1.54, the “Tumor to tissue ratio, Tumor/muscle” value (PSMA-positive xenografts; 4 h) was 61.5 and the “Tumor to tissue ratio, Tumor/Femur” value (PSMA-positive xenografts; 8 h) was 19.8. For the same molecule, the “Tumor to tissue ratio, Tumor/blood” value (PSMA-positive xenografts; 8 h) was 112.7, the “Tumor to tissue ratio, Tumor/kidneys” value (PSMA-positive xenografts; 8 h) was 3.60 and the “Tumor to tissue ratio, Tumor/muscle” value (PSMA-positive xenografts; 8 h) was 366.2. For the same molecule, the “Biodistribution, Bladder” value (PSMA-positive xenografts; Bladder, 8 h) was 0.26 % ID/g, the “Biodistribution, Blood” value (PSMA-positive xenografts; 2 h) was 0.54 % ID/g and the “Biodistribution, Blood” value (PSMA-positive xenografts; 4 h) was 0.46 % ID/g. For the same molecule, the “Biodistribution, Blood” value (PSMA-positive xenografts; 8 h) was 0.13 % ID/g, the “Biodistribution, Brain” value (PSMA-positive xenografts; 1 h) was 0.61 % ID/g and the “Biodistribution, Brain” value (PSMA-positive xenografts; 2 h) was 0.04 % ID/g. For the same molecule, the “Biodistribution, Brain” value (PSMA-positive xenografts; 4 h) was 0.07 % ID/g, the “Biodistribution, Brain” value (PSMA-positive xenografts; 8 h) was 0.02 % ID/g and the “Biodistribution, Femur” value (PSMA-positive xenografts; 1 h) was 0.87 % ID/g. The “Biodistribution, Femur” value (PSMA-positive xenografts; 2 h) was 0.40 % ID/g, the “Biodistribution, Femur” value (PSMA-positive xenografts; 4 h) was 0.57 % ID/g and the “Biodistribution, Femur” value (PSMA-positive xenografts; 8 h) was 0.74 % ID/g. The “Biodistribution, Heart” value (PSMA-positive xenografts; 1 h) was 0.78 % ID/g, the “Biodistribution, Heart” value (PSMA-positive xenografts; 2 h) was 0.20 % ID/g and the “Biodistribution, Heart” value (PSMA-positive xenografts; 4 h) was 0.52 % ID/g. For the same molecule, the “Biodistribution, Heart” value (PSMA-positive xenografts; 8 h) was 0.09 % ID/g, the “Biodistribution, Large intestine” value (PSMA-positive xenografts; 1 h) was 0.25 % ID/g and the “Biodistribution, Large intestine” value (PSMA-positive xenografts; 2 h) was 0.39 % ID/g. For the same molecule, the “Biodistribution, Large intestine” value (PSMA-positive xenografts; 4 h) was 0.18 % ID/g, the “Biodistribution, Large intestine” value (PSMA-positive xenografts; 8 h) was 0.17 % ID/g and the “Biodistribution, Lungs” value (PSMA-positive xenografts; 2 h) was 0.40 % ID/g. For the same molecule, the “Biodistribution, Lungs” value (PSMA-positive xenografts; 4 h) was 0.75 % ID/g, the “Biodistribution, Lungs” value (PSMA-positive xenografts; 8 h) was 0.17 % ID/g and the “Biodistribution, Muscle” value (PSMA-positive xenografts; 1 h) was 0.62 % ID/g. The “Biodistribution, Muscle” value (PSMA-positive xenografts; 2 h) was 0.22 % ID/g, the “Biodistribution, Muscle” value (PSMA-positive xenografts; 4 h) was 0.23 % ID/g and the “Biodistribution, Muscle” value (PSMA-positive xenografts; 8 h) was 0.04 % ID/g. The “Biodistribution, Prostate” value (PSMA-positive xenografts; Prostate, 2 h) was 3.80 % ID/g, the “Biodistribution, Salivary gland” value (PSMA-positive xenografts; 1 h) was 0.72 % ID/g and the “Biodistribution, Salivary gland” value (PSMA-positive xenografts; 2 h) was 0.32 % ID/g. For the same molecule, the “Biodistribution, Salivary gland” value (PSMA-positive xenografts; 4 h) was 0.34 % ID/g, the “Biodistribution, Salivary gland” value (PSMA-positive xenografts; 8 h) was 0.15 % ID/g and the “Biodistribution, Skin” value (PSMA-positive xenografts; 1 h) was 1.70 % ID/g. For the same molecule, the “Biodistribution, Skin” value (PSMA-positive xenografts; 2 h) was 0.47 % ID/g, the “Biodistribution, Skin” value (PSMA-positive xenografts; 4 h) was 0.42 % ID/g and the “Biodistribution, Skin” value (PSMA-positive xenografts; 8 h) was 0.23 % ID/g. For the same molecule, the “Biodistribution, Skull” value (PSMA-positive xenografts; 1 h) was 0.77 % ID/g, the “Biodistribution, Skull” value (PSMA-positive xenografts; 2 h) was 0.38 % ID/g and the “Biodistribution, Skull” value (PSMA-positive xenografts; 4 h) was 0.37 % ID/g. The “Biodistribution, Skull” value (PSMA-positive xenografts; 8 h) was 0.63 % ID/g, the “Biodistribution, Small intestine” value (PSMA-positive xenografts; 1 h) was 0.34 % ID/g and the “Biodistribution, Small intestine” value (PSMA-positive xenografts; 2 h) was 0.23 % ID/g. The “Biodistribution, Small intestine” value (PSMA-positive xenografts; 4 h) was 0.30 % ID/g, the “Biodistribution, Small intestine” value (PSMA-positive xenografts; 8 h) was 0.08 % ID/g and the “Biodistribution, Spleen” value (PSMA-positive xenografts; 2 h) was 0.44 % ID/g. For the same molecule, the “Biodistribution, Spleen” value (PSMA-positive xenografts; 4 h) was 0.54 % ID/g, the “Biodistribution, Spleen” value (PSMA-positive xenografts; 8 h) was 0.36 % ID/g and the “Biodistribution, Stomach” value (PSMA-positive xenografts; 1 h) was 0.16 % ID/g. For the same molecule, the “Biodistribution, Stomach” value (PSMA-positive xenografts; 2 h) was 0.22 % ID/g, the “Biodistribution, Stomach” value (PSMA-positive xenografts; 4 h) was 0.10 % ID/g and the “Biodistribution, Stomach” value (PSMA-positive xenografts; 8 h) was 0.09 % ID/g. For the same molecule, the “Biodistribution, Testes” value (PSMA-positive xenografts; 2 h) was 0.56 % ID/g, the “Biodistribution, Testes” value (PSMA-positive xenografts; 4 h) was 0.38 % ID/g and the “Biodistribution, Testes” value (PSMA-positive xenografts; 8 h) was 0.12 % ID/g. For the same molecule, the Median survival [2] was > 30 days, the “Radiobiological effectiveness (RBE) vs ^177Lu-PSMA-617” value ([2]; C4-2 xenografts) was “at least 17” and the “Survival at day 30 after treatment” value ([2]; groups of 8) was 75%.

For `NC(=O)CN1CCN(CC(N)=O)CCN(CC(N)=O)C(Cc2ccc(NC(=S)NC[C@H]3CC[C@H](C(=O)N[C@@H](Cc4ccc5ccccc5c4)C(=O)NCCCC[C@H](NC(=O)N[C@@H](CCC(=O)O)C(=O)O)C(=O)O)CC3)cc2)CN(CC(N)=O)CC1` (stereo partly drawn) [p-SCN-Bn-TCMC-PSMA ligand 1, (((1S)-1-carboxy-5-((2S)-3-(naphthalen-2-yl)-2-((1r,4S)-4-((3-(4-((1,4,7,10-tetrakis(2-amino-2-oxoethyl)-1,4,7,10-tetraazacyclododecan-2-yl)methyl)phenyl)thioureido)methyl)cyclohexane-1-carboxamido)propanamido)pentyl)carbamoyl)-L-glutamic acid; trifloroacetic acid (1:4)], the “Difference in cell-binding between radiolabelled p-SCN-Bn-TCMC-PSMA ligand 1 and PSMA-617” value (C4-2 cells) was “No significant difference”.

— patent publication US12297218B2, “Complex comprising a PSMA-targeting compound linked to a lead or thorium radionuclide” (Sciencons AS, priority 2017, dated 2025)
